Source: patent publication US8796415B2, “Inhibitors of guanine exchange factors and their use as anticancer drugs” (Centre National de la Recherche Scientifique, priority 2009, dated 2014)
Ends that are not written are not given here.

Assays:
Trio DH2-PH2 = target: T1, Trio DH2-PH2 (Homo sapiens, UniProt O75962); settings: Schmidt et al., 2002; cited from earlier work
T1 construct: made in house

p115RhoGEF = target: T2, p115RhoGEF (Homo sapiens, UniProt Q92888); settings: shown previously (Schmidt et al., 2002 and unpublished results); cited from earlier work
T2 construct: GST (N); made in house; host or cells: baculovirus system
T2 sequence (Q92888 1-912): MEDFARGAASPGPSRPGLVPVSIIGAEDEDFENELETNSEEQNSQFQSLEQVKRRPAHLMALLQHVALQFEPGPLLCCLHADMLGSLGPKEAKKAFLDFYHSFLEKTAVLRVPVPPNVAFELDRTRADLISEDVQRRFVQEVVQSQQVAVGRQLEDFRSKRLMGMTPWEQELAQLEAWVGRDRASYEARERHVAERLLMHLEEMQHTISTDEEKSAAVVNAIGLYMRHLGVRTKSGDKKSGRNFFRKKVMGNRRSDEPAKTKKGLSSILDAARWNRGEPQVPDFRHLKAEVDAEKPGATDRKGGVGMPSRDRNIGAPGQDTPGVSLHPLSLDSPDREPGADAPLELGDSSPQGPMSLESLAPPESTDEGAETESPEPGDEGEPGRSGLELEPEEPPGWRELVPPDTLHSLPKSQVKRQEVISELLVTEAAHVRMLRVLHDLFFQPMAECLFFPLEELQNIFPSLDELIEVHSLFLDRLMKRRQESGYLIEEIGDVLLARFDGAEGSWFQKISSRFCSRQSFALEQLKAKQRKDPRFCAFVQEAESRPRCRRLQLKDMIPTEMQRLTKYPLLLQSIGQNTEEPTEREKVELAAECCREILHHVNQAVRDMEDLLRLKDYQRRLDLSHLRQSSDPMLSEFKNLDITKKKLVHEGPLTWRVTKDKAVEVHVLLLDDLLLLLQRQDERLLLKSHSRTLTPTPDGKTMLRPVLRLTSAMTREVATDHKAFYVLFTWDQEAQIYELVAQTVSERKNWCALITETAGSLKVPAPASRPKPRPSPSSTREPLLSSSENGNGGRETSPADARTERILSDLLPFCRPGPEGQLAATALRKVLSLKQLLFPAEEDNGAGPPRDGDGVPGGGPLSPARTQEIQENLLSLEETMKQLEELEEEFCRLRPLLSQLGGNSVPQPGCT

PC12 cells = settings: Schmidt et al., 2002; cited from earlier work
[1] = test system: Tgat-expressing NIH3T3 cells; assay: Focus formation assay of Tgat-expressing NIH3T3 cells; type: cell-based; settings: GST-tagged peptide stably co-expressed; after 3 weeks of culture
Procedure: FIG. 9A represents the focus formation assay of NIH3T3 cells, stably expressing GFP or GFP-Tgat, together with GST or GST-TRIPE32G.
FIG. 9B represents the quantification of three independent focus formation assays. The number of foci formed by Tgat/GST expressing cells was set to 100%.
NIH3T3 cells were maintained as described previously (Sirvent et al., 2007). Transient transfection experiments were performed using the Jet PEI reagent, according to the manufacturer's protocol (QBiogene Inc.). NIH3T3 cell lines stably expressing GFP-Tgat, GFP-TgatL190E, or GFP-Trio, with or without the GST-TRIP peptides, were generated as follows: the indicated retroviral constructs were transfected into BOSC packaging cells, using the Lipofectamine reagent (Invitrogen Inc.). Forty-eight hours after transfection, virus containing supernatants were collected and used to infect NIH3T3 cells. Infected cells were selected with 6 μg/mL puromycin and/or 1 mg/mL G418 and stable transfectants were pooled after selection. Tgat or TRIP mRNA levels in the different cell lines were monitored by RTPCR, and protein expression levels by Western blot analysis using a polyclonal anti-GFP antibody (Toney Pines Laboratories). […] After staining with Crystal Violet (1%), plates were photographed and foci were scored using the Metamorph software. […]

[2] = test system: Tgat-expressing NIH3T3 cells; assay: Cell proliferation or apoptosis (data not shown); type: cell-based

Substance	inhibition of Trio DH2-PH2 activation of RhoA (Trio DH2-PH2)	activity on p115RhoGEF (p115RhoGEF)	neurite retraction phenotype induced by Trio DH2-PH2 (PC12 cells)	foci in Tgat expressing cells [1]	non-specific effect on cell proliferation or apoptosis [2]
AREGADGAICGYNLATLVMLGPSERVFCPLCEPCSSDIYELM [TRIPα]	inhibits its activation of RhoA both in vitro and in intact cells	not active	reverting the neurite retraction phenotype	–	–
GST-TRIPE32G (AREGADGAICGYNLATLVMLGPSERVFCPLCGPCSSDIYELM; cysteine pairing not given here; also: GST fusion)	–	–	–	severely reduced	not due to a non-specific effect of TRIPE32G on cell proliferation or apoptosis
